In the supplement of paper PMC10307832:

Assays:
Assay in all cases: relative viability (nuclei count vs DMSO), 5 days (fraction); higher = more cells survive
Trametinib + Tozasertib = compound: CC(=O)Nc1cccc(-n2c(=O)n(C3CC3)c(=O)c3c(Nc4ccc(I)cc4F)n(C)c(=O)c(C)c32)c1 [Trametinib] + Cc1cc(Nc2cc(N3CCN(C)CC3)nc(Sc3ccc(NC(=O)C4CC4)cc3)n2)n[nH]1 [Tozasertib] (partner 0.1 µM)
Procedure, shortened: (§1)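 The day after seeding in 1536-well plates, lung cancer cell lines were treated by pin tool with a single drug, or with a fixed anchor-drug dose together with five library-drug doses (not always all listed) in √10 steps. After 5 days, a combined fix-and-stain solution (final 0.05% Triton X-100, 1% formaldehyde, 1 ug/ml Hoechst) was added. Nuclei counted on 4× images gave relative viability as treated counts over vehicle counts, reported as the median of duplicate plates.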

Trametinib + Alpelisib = compound: CC(=O)Nc1cccc(-n2c(=O)n(C3CC3)c(=O)c3c(Nc4ccc(I)cc4F)n(C)c(=O)c(C)c32)c1 [Trametinib] + Cc1nc(NC(=O)N2CCC[C@H]2C(N)=O)sc1-c1ccnc(C(C)(C)C(F)(F)F)c1 [Alpelisib] (partner 2 µM)
Procedure, shortened: as §1

[1] = compound: CN1C=C(C2=CC=CC=C21)/C=C\3/C4=C(C=CC=N4)NC3=O + CC1(C)CCC(c2ccc(Cl)cc2)=C(CN2CCN(c3ccc(C(=O)NS(=O)(=O)c4ccc(N[C@H](CCN5CCOCC5)CSc5ccccc5)c(S(=O)(=O)C(F)(F)F)c4)cc3)CC2)C1 [Navitoclax] (partner 0.5 µM)
Procedure, shortened: as §1

[2] = compound: CN1C=C(C2=CC=CC=C21)/C=C\3/C4=C(C=CC=N4)NC3=O + O=C(c1cc(Cc2n[nH]c(=O)c3ccccc23)ccc1F)N1CCN(C(=O)C2CC2)CC1 [Olaparib] (partner 8 µM)
Procedure, shortened: as §1

Cell Line	relative viability (Trametinib + Tozasertib; first compound 0.0025 µM)	relative viability (Trametinib + Tozasertib; first compound 0.007906 µM)	relative viability (Trametinib + Tozasertib; first compound 0.025 µM)	relative viability (Trametinib + Tozasertib; first compound 0.07906 µM)	relative viability (Trametinib + Tozasertib; first compound 0.25 µM)	relative viability (Trametinib + Alpelisib; first compound 0.0025 µM)	relative viability (Trametinib + Alpelisib; first compound 0.007906 µM)	relative viability (Trametinib + Alpelisib; first compound 0.025 µM)	relative viability (Trametinib + Alpelisib; first compound 0.07906 µM)	relative viability (Trametinib + Alpelisib; first compound 0.25 µM)	relative viability ([1]; first compound 0.02 µM)	relative viability ([1]; first compound 0.06325 µM)	relative viability ([1]; first compound 0.6325 µM)	relative viability ([1]; first compound 2 µM)	relative viability ([2]; first compound 0.02 µM)	relative viability ([2]; first compound 0.06325 µM)	relative viability ([2]; first compound 0.2 µM)	relative viability ([2]; first compound 2 µM)	relative viability ([1]; first compound 0.2 µM)	relative viability ([2]; first compound 0.6325 µM)
EPLC-272H	0.207	0.203	0.212	0.149	0.266	0.721	0.539	0.438	0.438	0.346	1.37	0.988	1.27	0.944	1.16	0.706	0.712	0.682		
SK-LU-1	0.301	0.309	0.286	0.264	0.181	0.966	0.841	0.7	0.361	0.226	0.482	0.812	1	1.23	0.424	0.43	0.406	0.602	0.802	0.444
NCI-H1395	0.797	0.73	0.721	0.718	0.548	1.02	0.903	1.39	1.09	0.652	1.08	0.967	1.09	1.11	0.461	0.476	0.455	0.457		0.527
NCI-H2085	0.721	0.598	0.551	0.561	0.621	0.916	0.757	0.635	0.655	0.608	1.04	1.15	1.22	1.18	0.806	0.75	0.86	0.847	1.19	0.857
NCI-H2087	0.189	0.166	0.111	0.12	0.108	0.705	0.442	0.371	0.28	0.266	1.01	0.843	1.03	1.13	0.513	0.56	0.62	0.653	1.19	0.511
NCI-H322M	0.465	0.361	0.387	0.331	0.369	0.78	0.59	0.555	0.455	0.316	1.31	1.3	1.12	1.29	0.766	0.717	0.718	0.923	1.12	0.961
NCI-H1734	0.255	0.243	0.216	0.203	0.205	0.627	0.712		0.631	0.444	0.817	0.82	0.798	0.83	0.355	0.596		0.631		0.588
NCI-H2228	0.239	0.209	0.207	0.211	0.132	0.749	0.527	0.488	0.331	0.194	1.22	0.796	0.67	0.812	0.951	0.534	0.579	0.768		0.476
